# Article PMC6416464 (Drug Metabolism Letters, 2018)
# Experiments:
# [1] = Metabolic stability, incubation with human liver microsomes; conditions: 1 µM test compound, 0.5 mg/mL protein
# rCYP2D6 = rCYP2D6 (Homo sapiens, UniProt P10635); test: Metabolic stability / reaction phenotyping with recombinant human CYP2D6
# CYP3A4 [2] = biological target: T1, CYP3A4 (Homo sapiens, UniProt P08684); test: in vitro; conditions: microsomes, pH 7.4
# CYP3A4 [3] = biological target: T1, CYP3A4; test: in vitro; conditions: microsomes, pH 7.4, % Inhibition of Control Activity CYP3A4 (substrate, testosterone)
# [4] = Metabolic stability, incubation with human liver cytosol; format: in vitro ADME; conditions: 1 µM test compound, 1 mg/mL protein
# rCYP1A2 = biological target: T2, rCYP1A2 (Homo sapiens, UniProt P05177); test: Metabolic stability / reaction phenotyping with recombinant human CYP1A2
# T2 sequence (P05177 1-516): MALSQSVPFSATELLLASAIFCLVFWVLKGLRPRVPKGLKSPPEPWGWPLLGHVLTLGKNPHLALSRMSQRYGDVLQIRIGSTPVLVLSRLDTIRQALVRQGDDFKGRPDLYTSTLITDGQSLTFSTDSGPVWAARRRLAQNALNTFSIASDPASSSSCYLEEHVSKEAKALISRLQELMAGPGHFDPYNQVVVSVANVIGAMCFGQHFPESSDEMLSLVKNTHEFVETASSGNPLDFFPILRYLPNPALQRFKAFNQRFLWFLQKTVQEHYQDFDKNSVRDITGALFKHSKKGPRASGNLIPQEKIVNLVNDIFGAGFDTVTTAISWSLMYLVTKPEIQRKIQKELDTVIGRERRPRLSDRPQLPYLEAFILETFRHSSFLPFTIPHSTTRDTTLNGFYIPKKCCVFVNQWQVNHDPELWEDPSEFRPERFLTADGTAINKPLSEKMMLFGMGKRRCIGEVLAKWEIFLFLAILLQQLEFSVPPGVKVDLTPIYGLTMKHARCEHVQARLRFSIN
# CYP2C8 = biological target: T3, CYP2C8 (Homo sapiens, UniProt P10632); test: CYP inhibition in human liver microsomes, CYP2C8
# T3 sequence (P10632 1-490): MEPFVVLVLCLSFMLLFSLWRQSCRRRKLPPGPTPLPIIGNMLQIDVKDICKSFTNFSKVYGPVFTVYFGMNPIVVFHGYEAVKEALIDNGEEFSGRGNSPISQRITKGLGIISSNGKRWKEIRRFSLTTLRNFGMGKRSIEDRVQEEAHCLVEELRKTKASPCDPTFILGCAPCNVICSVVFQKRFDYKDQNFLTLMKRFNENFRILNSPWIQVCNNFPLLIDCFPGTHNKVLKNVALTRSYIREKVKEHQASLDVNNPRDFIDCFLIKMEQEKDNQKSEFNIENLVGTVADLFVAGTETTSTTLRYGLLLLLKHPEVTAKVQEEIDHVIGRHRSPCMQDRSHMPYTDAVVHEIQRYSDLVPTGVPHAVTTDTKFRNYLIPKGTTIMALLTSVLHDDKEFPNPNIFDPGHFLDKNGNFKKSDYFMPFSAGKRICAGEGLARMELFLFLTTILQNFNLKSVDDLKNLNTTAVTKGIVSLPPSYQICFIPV
# rCYP2C19 = rCYP2C19 (Homo sapiens, UniProt P33261); test: Metabolic stability / reaction phenotyping with recombinant human CYP2C19
# rCYP2C19, sequence (P33261 whole entry): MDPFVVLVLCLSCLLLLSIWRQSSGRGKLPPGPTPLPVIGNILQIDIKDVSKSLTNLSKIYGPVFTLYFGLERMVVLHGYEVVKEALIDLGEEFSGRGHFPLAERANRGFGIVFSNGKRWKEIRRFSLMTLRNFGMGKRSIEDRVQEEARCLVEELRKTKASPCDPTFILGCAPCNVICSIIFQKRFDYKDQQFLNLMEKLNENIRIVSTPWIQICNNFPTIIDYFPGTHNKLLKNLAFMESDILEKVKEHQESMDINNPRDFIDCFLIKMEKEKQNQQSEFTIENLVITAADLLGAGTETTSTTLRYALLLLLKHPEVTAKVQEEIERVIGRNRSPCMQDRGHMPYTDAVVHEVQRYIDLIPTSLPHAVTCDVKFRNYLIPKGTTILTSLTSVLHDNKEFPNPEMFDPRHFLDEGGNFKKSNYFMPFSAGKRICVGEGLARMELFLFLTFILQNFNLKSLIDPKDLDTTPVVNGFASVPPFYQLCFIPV
# CYP2C9 = CYP2C9 (Homo sapiens, UniProt P11712); test: CYP inhibition in human liver microsomes, CYP2C9
# CYP2C9, sequence (P11712 whole entry): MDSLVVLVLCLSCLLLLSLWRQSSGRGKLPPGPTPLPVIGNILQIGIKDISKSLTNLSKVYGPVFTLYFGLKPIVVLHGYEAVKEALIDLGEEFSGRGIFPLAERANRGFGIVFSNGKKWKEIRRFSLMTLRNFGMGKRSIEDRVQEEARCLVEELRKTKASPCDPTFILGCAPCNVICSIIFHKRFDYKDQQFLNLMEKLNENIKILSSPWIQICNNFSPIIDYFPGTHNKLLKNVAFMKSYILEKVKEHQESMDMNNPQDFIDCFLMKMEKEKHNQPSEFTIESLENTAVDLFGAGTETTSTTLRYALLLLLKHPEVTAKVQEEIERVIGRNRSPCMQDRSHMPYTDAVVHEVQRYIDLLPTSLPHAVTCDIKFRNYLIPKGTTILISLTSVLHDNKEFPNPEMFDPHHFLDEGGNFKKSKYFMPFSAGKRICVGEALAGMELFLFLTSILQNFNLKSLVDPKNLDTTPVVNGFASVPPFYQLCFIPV
# [5] = cited from earlier work
# rCYP2C9 = rCYP2C9 (Homo sapiens, UniProt P11712); test: Metabolic stability / reaction phenotyping with recombinant human CYP2C9
# rCYP2C9, sequence (P11712 whole entry): as above
# CYP2C19 = CYP2C19 (Homo sapiens, UniProt P33261); test: CYP inhibition in human liver microsomes, CYP2C19
# CYP2C19, sequence (P33261 whole entry): as the sequence (P33261 whole entry) above
# rCYP3A4 = rCYP3A4 (Homo sapiens, UniProt P08684)
# rCYP3A4, sequence (P08684 whole entry): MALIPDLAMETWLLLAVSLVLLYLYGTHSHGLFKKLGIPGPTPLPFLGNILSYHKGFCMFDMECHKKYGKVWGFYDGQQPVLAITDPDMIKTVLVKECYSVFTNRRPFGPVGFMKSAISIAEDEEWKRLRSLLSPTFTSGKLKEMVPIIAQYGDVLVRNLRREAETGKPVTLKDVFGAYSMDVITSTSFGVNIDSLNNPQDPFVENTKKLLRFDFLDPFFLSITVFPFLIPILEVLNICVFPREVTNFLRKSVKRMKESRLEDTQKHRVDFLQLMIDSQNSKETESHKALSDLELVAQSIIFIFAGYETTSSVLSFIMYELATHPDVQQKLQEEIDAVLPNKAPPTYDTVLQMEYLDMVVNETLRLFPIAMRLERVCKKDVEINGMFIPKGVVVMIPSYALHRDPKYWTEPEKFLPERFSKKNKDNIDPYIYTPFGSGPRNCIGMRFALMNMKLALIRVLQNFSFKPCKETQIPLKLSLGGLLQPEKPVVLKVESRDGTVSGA
# rCYP2C8 = biological target: T4, rCYP2C8 (Homo sapiens, UniProt P10632); test: Metabolic stability / reaction phenotyping with recombinant human CYP2C8; conditions: 1 µM test compound; 100 pmol/mL; 30 min
# T4 sequence (P10632 1-490): T3 sequence (P10632 1-490)
# CYP1A2 = biological target: T5, CYP1A2 (Homo sapiens, UniProt P05177); test: CYP inhibition in human liver microsomes, CYP1A2
# T5 sequence (P05177 1-516): T2 sequence (P05177 1-516)
# CYP3A4 [6] = biological target: T1, CYP3A4; test: biochemical
# [7] = 1 µM test compound, 100 pmol/mL, 30 min
# [8] = human, recombinant human CYP2D6, 1 µM, pH 7.4
# [9] = human, recombinant human CYP1A2, 1 µM, pH 7.4
# [10] = human, human liver microsomes, pH 7.4, probe paclitaxel
# [11] = human, recombinant human CYP2C19, 1 µM, pH 7.4
# [12] = human, recombinant human CYP2C9, 1 µM, pH 7.4
# [13] = human, recombinant enzyme, pH 7.4
# rCYP2D6, sequence (P10635 whole entry): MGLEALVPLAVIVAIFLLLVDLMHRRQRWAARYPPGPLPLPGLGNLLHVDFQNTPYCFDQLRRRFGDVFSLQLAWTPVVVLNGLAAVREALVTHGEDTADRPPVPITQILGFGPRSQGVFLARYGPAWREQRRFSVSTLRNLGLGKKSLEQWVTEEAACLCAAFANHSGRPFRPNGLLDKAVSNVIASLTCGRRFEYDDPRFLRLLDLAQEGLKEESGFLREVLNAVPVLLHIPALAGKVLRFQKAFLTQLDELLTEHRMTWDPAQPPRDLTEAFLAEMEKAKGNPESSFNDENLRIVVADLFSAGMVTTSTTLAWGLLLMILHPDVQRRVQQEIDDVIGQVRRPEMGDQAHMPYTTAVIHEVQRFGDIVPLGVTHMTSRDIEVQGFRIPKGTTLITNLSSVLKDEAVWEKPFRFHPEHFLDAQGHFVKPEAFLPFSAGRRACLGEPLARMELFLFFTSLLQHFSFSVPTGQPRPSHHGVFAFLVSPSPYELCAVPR
# T1 sequence (P08684 2-503): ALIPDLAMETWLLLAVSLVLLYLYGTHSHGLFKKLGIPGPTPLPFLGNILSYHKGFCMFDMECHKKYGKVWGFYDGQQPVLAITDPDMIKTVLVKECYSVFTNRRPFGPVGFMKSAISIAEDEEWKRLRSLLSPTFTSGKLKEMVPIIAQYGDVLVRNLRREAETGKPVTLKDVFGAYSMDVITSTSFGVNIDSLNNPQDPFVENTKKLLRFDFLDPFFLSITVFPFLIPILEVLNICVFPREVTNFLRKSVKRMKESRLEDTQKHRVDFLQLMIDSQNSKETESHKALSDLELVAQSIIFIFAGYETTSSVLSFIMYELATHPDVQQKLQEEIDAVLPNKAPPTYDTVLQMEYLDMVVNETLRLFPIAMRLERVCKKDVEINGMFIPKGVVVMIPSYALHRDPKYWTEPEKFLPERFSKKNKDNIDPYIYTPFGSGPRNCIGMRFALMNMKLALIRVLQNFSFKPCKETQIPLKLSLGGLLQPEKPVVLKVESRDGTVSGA
compound,measurement,setting,value
"CSc1nc2cc(Cl)c(Oc3cccc(Cl)c3Cl)cc2[nH]1 [Triclabendazole, reference compound]",% Metabolized at 30 min Incubation with Human Liver Fractions/Enzymes HLM,[1],51.68%
same,% Metabolized at 30 min Incubation with Human Liver Fractions/Enzymes rCYP2D6,rCYP2D6; [7],73.66%
same,"% Contribution of CYP Enzymes (fmCYP) in Metabolism, CYP2D6",rCYP2D6; [8],3.88%
same,"Predicted Microsomal Clint, CYP2D6",rCYP2D6; [8],4.448 µL/min/mg Protein
same,"rCYP Clint, CYP2D6",rCYP2D6; [8],0.445 µL/min/pmol
same,inhibition at 2 µM,CYP3A4 [2],< 0%
same,inhibition at 10 µM,CYP3A4 [2],< 0%
same,inhibition at 2 µM,CYP3A4 [3],13.5%
same,inhibition at 10 µM,CYP3A4 [3],52.9%
same,% Metabolized at 30 min Incubation with Human Liver Fractions/Enzymes Cytosol,[4],12.40%
same,% Metabolized at 30 min Incubation with Human Liver Fractions/Enzymes rCYP1A2,rCYP1A2; [7],97.14%
same,"% Contribution of CYP Enzymes (fmCYP) in Metabolism, CYP1A2",rCYP1A2; [9],53.74%
same,"Predicted Microsomal Clint, CYP1A2",rCYP1A2; [9],61.600 µL/min/mg Protein
same,"rCYP Clint, CYP1A2",rCYP1A2; [9],1.185 µL/min/pmol
same,IC50,"CYP2C8; IC50 CYP 2C8, HLM",3310 nM
same,inhibition at 2 µM,CYP2C8; [10],7.09%
same,inhibition at 10 µM,CYP2C8; [10],79.7%
same,% Metabolized at 30 min Incubation with Human Liver Fractions/Enzymes rCYP2C19,rCYP2C19; [7],94.55%
same,"% Contribution of CYP Enzymes (fmCYP) in Metabolism, CYP2C19",rCYP2C19; [11],16.07%
same,"Predicted Microsomal Clint, CYP2C19",rCYP2C19; [11],18.415 µL/min/mg Protein
same,"rCYP Clint, CYP2C19",rCYP2C19; [11],0.969 µL/min/pmol
same,IC50,CYP2C9,1170 nM
same,Cmax,[5]; human patients at therapeutic doses of triclabendazole,1160 nM
same,peak concentration,"[5]; humans, standard dose of triclabendazole of 10 mg/kg",1.16 µM
same,% Metabolized at 30 min Incubation with Human Liver Fractions/Enzymes rCYP2C9,rCYP2C9; [7],55.00%
same,"% Contribution of CYP Enzymes (fmCYP) in Metabolism, CYP2C9",rCYP2C9; [12],22.29%
same,"Predicted Microsomal Clint, CYP2C9",rCYP2C9; [12],25.548 µL/min/mg Protein
same,"rCYP Clint, CYP2C9",rCYP2C9; [12],0.266 µL/min/pmol
same,IC50,CYP2C19,250 nM
same,% Metabolized at 30 min Incubation with Human Liver Fractions/Enzymes rCYP3A4,rCYP3A4; [7],11.70%
same,"Predicted Microsomal Clint, CYP3A4","rCYP3A4; human, pH 7.4",4.604 µL/min/mg Protein
same,"% Contribution of CYP Enzymes (fmCYP) in Metabolism, CYP3A4",rCYP3A4; [13],4.02%
same,"rCYP Clint, CYP3A4",rCYP3A4; [13],0.041 µL/min/pmol
same,% Metabolized at 30 min Incubation with Human Liver Fractions/Enzymes rCYP2C8,rCYP2C8,0.00%
same,IC50,CYP1A2,1070 nM
same,IC50,CYP3A4 [6],15100 nM
